In US20090057618A1, “Corrosion inhibitors containing amphoteric surfactants” (Clariant International Ltd., priority 2007, published 2009) one finds ø protection % data, which are given here for one compound.

A short description of this experiment: Shell wheel test (corrosion inhibition). Conditions: 50 ppm of a 24% solution of the inhibitor; salt water/petroleum 9:1, 5% NaCl, pH 3.5; 40 rpm, 70° C., 24 hours; from decrease in coupon mass vs blank. On the procedure: The compounds according to the invention were tested as corrosion inhibitors in the Shell wheel test. Coupons of C steel (DIN 1.1203 with 15 cm^2 surface area) were immersed in a salt water/petroleum mixture (9:1, 5% strength NaCl solution adjusted to pH 3.5 with acetic acid) and exposed to this medium at a speed of 40 rpm at 70° C. for 24 hours. The inhibitor dose was 50 ppm of a 24% solution of the inhibitor. The protection values were calculated from the decrease in the mass of the coupons, based on a blank value.

SMILES strings stand for the structures.

On to `CCCCCCCC/C=C\CCCCCCCC(=O)NC(CCSC)C(=O)[O-].[K+]` (racemic) [Example 2, N-Oleoyl-DL-methionine Potassium Salt], for which the ø protection % stood at 69%.
